# Calls of active or inactive are those of the source.
# Key:
# [1] = biological target: T1, RNA-binding protein pos-1 (Caenorhabditis elegans, UniProt G5EF15); assay: inhibitors of POS-1/mex-3 RNA binding, dose response, biochemical, fluorescence polarization (AID 1964);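 further: purified POS-1 fused to maltose binding protein made in E. coli; potency of compounds blocking POS-1 binding to fluorescent RNA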
# T1 sequence (G5EF15 whole entry): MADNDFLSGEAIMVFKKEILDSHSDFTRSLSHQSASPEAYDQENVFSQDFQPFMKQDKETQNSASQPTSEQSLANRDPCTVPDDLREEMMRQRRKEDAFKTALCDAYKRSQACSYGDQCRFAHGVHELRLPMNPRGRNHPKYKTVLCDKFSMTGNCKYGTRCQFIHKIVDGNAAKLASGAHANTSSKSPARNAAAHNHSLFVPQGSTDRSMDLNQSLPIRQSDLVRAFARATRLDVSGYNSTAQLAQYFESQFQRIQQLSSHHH
# Oxytocin receptor = Oxytocin receptor (Homo sapiens, UniProt P30559); assay: Counterscreen for vasopressin 1 receptor (V1R) agonists: Fluorescence-based cell-based high throughput dose response assay for agonists of the Oxytocin Receptor (OXTR). [Related pubchem assays: 2435 (Primary screen (OXTR agonists in singlicate)), 434964 (Confirmation screen (V1R agonists in triplicate)), 434969 (Counterscreen (OXTR agonists in …; assay type: functional
# Vasopressin V1a receptor = Vasopressin V1a receptor (Homo sapiens, UniProt P37288); assay: Fluorescence-based cell-based high throughput dose response screening assay for agonists of the vasopressin 1 receptor (V1R).; assay type: functional
# [2] = biological target: T2, Zinc finger protein mex-5 (Caenorhabditis elegans, UniProt Q9XUB2); assay: MEX-5/TCR-2 RNA interaction inhibitors, dose response, biochemical, C. elegans, fluorescence polarization (AID 1960)
# T2 sequence (Q9XUB2 whole entry): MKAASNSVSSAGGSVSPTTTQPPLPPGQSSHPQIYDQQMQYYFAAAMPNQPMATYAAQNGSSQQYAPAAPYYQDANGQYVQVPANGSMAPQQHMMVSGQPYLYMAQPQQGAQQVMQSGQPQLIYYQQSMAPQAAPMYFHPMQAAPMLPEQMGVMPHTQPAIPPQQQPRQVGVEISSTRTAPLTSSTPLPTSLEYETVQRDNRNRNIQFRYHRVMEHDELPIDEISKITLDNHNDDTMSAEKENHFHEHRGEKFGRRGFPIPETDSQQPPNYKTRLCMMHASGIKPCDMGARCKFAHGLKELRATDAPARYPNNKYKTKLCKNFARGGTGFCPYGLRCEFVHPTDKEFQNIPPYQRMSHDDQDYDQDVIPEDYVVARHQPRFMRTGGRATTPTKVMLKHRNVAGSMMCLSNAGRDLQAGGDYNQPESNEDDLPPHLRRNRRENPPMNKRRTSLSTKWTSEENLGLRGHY
# [3] = biological target: T3, Heat shock factor protein 1 (Mus musculus, UniProt P38532); assay: inhibition of MG132-induced HSE-luciferase signal, confirmation, cell-based, NIH3T3, luminescence, dose retest (AID 2382); assay type: functional;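 further: NIH3T3 fibroblasts with HSF1-driven luciferase reporter stressed by proteasome inhibitor MG132; luminescence from HSF1-driven luciferase expression after 8 hours of MG132 stress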
# T3 sequence (P38532 whole entry): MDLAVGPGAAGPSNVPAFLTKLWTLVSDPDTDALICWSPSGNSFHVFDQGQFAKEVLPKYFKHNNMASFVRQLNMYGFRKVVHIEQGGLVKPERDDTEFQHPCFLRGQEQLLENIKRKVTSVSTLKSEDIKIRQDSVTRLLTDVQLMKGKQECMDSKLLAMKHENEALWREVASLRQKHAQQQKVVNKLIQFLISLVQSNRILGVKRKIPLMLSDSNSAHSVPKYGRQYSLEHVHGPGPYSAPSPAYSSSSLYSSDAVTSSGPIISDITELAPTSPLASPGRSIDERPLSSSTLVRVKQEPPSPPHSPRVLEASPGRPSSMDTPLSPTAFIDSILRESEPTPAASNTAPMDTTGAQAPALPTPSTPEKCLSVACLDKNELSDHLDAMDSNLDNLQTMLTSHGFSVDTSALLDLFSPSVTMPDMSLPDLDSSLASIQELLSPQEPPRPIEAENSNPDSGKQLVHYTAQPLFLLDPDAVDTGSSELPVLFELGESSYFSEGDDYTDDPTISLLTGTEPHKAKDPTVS
# [4] = NIH-3T3 fibroblast cytotoxicity, dose response, cytotoxicity control, cell-based, fluorescence, Alamar Blue, secondary assay (AID 2327); assay type: functional;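 further: NIH-3T3 mouse fibroblasts cultured with fluconazole at 8 µg/mL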
# INS1 = assay: beta cell apoptosis inhibitors, cytokine rescue, dose response, luminescence, retest (AID 449756); assay type: functional, cell-based; settings: Rattus norvegicus;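 further: cell death triggered by IL-1 beta plus TNF-alpha plus IFN-gamma mixture; protective hits raise ATP signal compared with cytokine alone wells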
# [5] = biological target: Heat shock protein HSP 90-alpha (Homo sapiens, UniProt P07900); assay type: functional, organism-based
# [6] = C. albicans growth with fluconazole, confirmation, fluorescence, retest (AID 2467); assay type: functional, cell-based
# [7] = microbe, parasite or virus in culture; assay type: functional; settings: Mycobacterium tuberculosis
# [8] = biological target: Sphingosine 1-phosphate receptor 4 (Homo sapiens, UniProt O95977); assay: Fluorescence dose response cell-based high throughput screening assay for antagonists of the Sphingosine 1-Phosphate Receptor 4 (S1P4). [Related pubchem assays: 1524 (Confirmation in triplicates.), 1510 (Primary screen.)]; assay type: functional
# [9] = biological target: Sphingosine 1-phosphate receptor 1 (Homo sapiens, UniProt P21453); assay type: functional;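 further: Tango beta-arrestin reporter U2OS cells stimulated with S1P near its EC80; inhibitor potency meaning antagonism of receptor activation by the natural agonist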
# Estrogen receptor = biological target: T4, Estrogen receptor (Homo sapiens, UniProt P03372); assay: ERα–SRC-3 coactivator interaction inhibitors, confirmation, orthogonal assay, biochemical, ELISA, streptavidin-HRP readout (AID 1079)
# T4 sequence (P03372 whole entry): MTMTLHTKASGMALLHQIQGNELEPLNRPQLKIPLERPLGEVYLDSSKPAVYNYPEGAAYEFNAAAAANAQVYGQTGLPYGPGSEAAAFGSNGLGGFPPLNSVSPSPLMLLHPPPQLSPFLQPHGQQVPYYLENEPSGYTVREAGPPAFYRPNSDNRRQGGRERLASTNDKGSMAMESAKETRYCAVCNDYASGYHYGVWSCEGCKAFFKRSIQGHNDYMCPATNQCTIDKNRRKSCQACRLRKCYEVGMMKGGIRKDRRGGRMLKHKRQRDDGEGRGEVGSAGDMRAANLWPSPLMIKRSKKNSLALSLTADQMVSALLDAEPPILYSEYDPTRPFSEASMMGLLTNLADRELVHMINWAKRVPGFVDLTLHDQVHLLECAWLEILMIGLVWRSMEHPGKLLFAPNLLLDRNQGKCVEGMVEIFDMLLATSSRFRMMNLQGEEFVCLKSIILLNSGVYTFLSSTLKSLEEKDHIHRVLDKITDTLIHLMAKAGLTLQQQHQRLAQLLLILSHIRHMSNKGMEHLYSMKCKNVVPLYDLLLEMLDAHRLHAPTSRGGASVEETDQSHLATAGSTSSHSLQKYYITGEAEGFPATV
# [10] = inhibitors of Bluetongue virus cytopathic effect, confirmation, arbovirus, BSR cells (AID 1250); assay type: functional;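 further: protection from viral cytopathic effect measured as cell viability by ATP luminescence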
# [11] = HepG2 cell cytotoxicity, dose response, cytotoxicity control, plate reader, cherry-pick, antagonist series (AID 743416); assay type: functional, cell-based
# [12] = LGR2 antagonists, dose response, cell-based, HEK293, CRE-luciferase reporter, cherry pick, set 2 (AID 743343); assay type: functional;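 further: transfected cells were stimulated with diluted bursicon conditioned medium after compound addition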
# [13] = MC4R antagonists, dose response, counter-screen for LGR2 antagonist project, cell-based, plate reader, cherry pick (AID 743444); assay type: functional;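 further: transfected HEK 293 cells stimulated with alpha-MSH peptide; potency of inhibitors of the alpha-MSH evoked signal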
# [14] = HEK293 cell cytotoxicity, dose response, cytotoxicity control, plate reader, cherry-picked samples (AID 743446); assay type: functional, cell-based
# [15] = biological target: Eukaryotic translation initiation factor 4H (Homo sapiens, UniProt Q15056); assay: human eIF4H binding inhibitors, primary screen, translation initiation inhibitor project, biochemical, uHTS, fluorescence polarization (AID 2012)
# [16] = biological target: DNA dC->dU-editing enzyme APOBEC-3A (Homo sapiens, UniProt P31941); assay: Dose Response confirmation of small molecule APOBEC3A DNA Deaminase Inhibitors via a fluorescence-based single-stranded DNA deaminase assay. [Related pubchem assays (depositor defined):AID493011, AID493024]; assay type: functional
# [17] = biological target: DNA dC->dU-editing enzyme APOBEC-3G (Homo sapiens, UniProt Q9HC16); assay type: functional;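 further: Dose-response counterscreen measuring inhibition of APOBEC3G DNA deaminase activity, run while confirming APOBEC3A inhibitors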
# [18] = biological target: Polyadenylate-binding protein 1 (Homo sapiens, UniProt P11940); assay: PABP poly(A) RNA binding inhibitors, primary screen, biochemical, fluorescence polarization, uHTS (AID 2014)
# Polyadenylate-binding protein 1, sequence (P11940 whole entry): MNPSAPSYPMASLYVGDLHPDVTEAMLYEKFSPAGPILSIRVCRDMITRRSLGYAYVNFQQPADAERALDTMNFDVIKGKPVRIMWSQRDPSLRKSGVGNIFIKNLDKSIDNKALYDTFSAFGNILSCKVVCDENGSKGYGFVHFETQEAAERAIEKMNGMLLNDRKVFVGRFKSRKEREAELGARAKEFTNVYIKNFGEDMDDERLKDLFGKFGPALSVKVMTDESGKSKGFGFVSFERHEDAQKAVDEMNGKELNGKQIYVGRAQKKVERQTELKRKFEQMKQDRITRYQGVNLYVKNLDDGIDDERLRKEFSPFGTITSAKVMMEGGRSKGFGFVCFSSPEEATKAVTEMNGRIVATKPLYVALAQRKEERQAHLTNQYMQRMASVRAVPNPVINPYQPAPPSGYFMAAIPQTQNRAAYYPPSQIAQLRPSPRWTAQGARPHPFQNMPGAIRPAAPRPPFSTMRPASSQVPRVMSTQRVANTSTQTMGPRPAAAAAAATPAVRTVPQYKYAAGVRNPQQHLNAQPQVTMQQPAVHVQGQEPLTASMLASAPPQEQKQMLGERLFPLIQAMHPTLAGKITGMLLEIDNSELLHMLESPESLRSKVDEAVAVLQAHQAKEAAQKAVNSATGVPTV
# DNA dC->dU-editing enzyme APOBEC-3G, sequence (Q9HC16 whole entry): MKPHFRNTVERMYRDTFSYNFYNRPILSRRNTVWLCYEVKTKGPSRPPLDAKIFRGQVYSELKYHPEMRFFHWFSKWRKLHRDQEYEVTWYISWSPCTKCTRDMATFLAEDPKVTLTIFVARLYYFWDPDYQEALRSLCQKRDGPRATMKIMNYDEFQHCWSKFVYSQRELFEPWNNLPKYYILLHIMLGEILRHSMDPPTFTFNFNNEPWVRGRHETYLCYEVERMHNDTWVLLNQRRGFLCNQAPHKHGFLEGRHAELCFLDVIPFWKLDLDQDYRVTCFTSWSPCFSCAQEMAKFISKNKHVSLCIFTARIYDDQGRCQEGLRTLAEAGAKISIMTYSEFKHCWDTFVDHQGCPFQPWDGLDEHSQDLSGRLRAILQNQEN
# Oxytocin receptor, sequence (P30559 whole entry): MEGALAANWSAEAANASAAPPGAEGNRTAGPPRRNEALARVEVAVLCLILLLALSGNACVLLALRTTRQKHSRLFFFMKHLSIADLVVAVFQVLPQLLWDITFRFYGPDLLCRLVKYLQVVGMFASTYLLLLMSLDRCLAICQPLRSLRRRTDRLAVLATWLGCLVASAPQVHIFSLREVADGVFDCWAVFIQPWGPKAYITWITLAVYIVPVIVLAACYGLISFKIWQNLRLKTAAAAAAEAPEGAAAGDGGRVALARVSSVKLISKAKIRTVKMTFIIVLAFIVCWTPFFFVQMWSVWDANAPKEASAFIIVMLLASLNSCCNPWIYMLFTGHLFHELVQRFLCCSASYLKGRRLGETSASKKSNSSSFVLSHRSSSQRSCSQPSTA
# Vasopressin V1a receptor, sequence (P37288 whole entry): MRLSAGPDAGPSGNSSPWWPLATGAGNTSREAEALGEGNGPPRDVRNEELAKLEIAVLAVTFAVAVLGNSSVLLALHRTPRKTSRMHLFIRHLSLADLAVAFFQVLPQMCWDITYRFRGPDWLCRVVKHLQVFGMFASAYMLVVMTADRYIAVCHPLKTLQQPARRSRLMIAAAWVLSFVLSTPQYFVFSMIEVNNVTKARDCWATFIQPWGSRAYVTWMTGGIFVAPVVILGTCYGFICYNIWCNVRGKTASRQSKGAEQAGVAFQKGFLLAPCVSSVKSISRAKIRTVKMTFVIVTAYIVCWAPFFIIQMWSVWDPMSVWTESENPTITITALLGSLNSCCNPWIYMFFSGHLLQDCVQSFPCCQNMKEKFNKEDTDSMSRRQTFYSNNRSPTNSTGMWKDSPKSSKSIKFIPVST
# Sphingosine 1-phosphate receptor 1, sequence (P21453 whole entry): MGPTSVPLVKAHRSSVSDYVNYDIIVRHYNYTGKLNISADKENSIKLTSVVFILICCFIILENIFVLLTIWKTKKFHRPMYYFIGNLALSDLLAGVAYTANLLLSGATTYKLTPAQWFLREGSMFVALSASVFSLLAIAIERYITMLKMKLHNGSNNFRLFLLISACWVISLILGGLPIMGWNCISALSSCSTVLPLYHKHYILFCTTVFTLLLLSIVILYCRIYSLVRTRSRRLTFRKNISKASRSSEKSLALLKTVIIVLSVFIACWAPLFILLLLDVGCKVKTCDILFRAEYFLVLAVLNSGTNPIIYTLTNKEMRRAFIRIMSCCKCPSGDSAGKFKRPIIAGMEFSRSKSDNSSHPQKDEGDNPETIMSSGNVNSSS
# DNA dC->dU-editing enzyme APOBEC-3A, sequence (P31941 whole entry): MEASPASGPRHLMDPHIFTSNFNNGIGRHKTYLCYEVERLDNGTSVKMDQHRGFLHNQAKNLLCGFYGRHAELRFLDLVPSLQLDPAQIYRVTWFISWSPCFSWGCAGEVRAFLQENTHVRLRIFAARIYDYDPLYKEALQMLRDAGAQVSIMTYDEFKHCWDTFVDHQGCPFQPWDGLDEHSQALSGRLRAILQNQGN
# Sphingosine 1-phosphate receptor 4, sequence (O95977 whole entry): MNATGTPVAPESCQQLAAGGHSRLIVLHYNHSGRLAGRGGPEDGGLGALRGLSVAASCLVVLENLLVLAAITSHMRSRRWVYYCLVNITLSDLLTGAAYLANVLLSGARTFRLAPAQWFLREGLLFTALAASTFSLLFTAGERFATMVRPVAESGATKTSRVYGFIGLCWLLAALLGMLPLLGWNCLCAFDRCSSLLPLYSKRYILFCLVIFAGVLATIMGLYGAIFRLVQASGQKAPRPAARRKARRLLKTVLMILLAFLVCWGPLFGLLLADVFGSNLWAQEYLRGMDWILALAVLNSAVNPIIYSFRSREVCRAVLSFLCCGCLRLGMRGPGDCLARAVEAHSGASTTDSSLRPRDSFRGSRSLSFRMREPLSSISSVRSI
smiles,measurement,setting,value
Cc1cc(C)c(/C=C2\C(=O)Nc3ccccc32)[nH]1 [SEMAXANIB],EC50,[1],> 300 µM (not active)
same,EC50,Oxytocin receptor,11.5 µM (not active)
same,EC50,Vasopressin V1a receptor,12.1 µM (not active)
same,EC50,[2],> 300 µM (not active)
Cc1cc([N+](=O)[O-])c2ccccc2[n+]1[O-],EC50,[3],6.35 µM (active)
same,EC50,[4],4.65 µM (inconclusive)
same,AC50,INS1,2.24 µM (active)
same,AC50,[5],< 0.195 µM (active)
same,EC50,[6],0.097 µM (active)
same,CC50,[7],< 0.16 µM (active)
same,IC50,[8],0.22 µM (active)
same,IC50,[9],3.28 µM (active)
O=C(CCCn1c(=S)[nH]c2ccccc2c1=O)N1CCN(Cc2cccc3ccccc23)CC1,IC50,Estrogen receptor,0.17 µM (not active)
COc1ccc(-c2csc(NC(=O)c3ccc(OCC(=O)N4CCOCC4)c(OC)c3)n2)cc1,IC50,[10],27.5 µM (active)
same,AC50,[11],> 52 µM (inactive)
same,AC50,[12],18.4 µM (active)
same,AC50,[13],22.4 µM (active)
same,AC50,[14],43.1 µM (active)
CC(=O)OC(C[N+]1(C)CCCCCC1)c1ccccc1 (configuration not stated),IC50,[15],> 100 µM (inactive)
same,IC50,[16],2.79 µM (active)
same,IC50,[17],2.4 µM (active)
same,IC50,[18],9.62 µM (active)
